From patent US6552061B1, “Amino acid derivatives and anti-inflammatory agents” (Ajinomoto Co., Inc., priority 1998, dated 2003)
Where two headings read alike, the source gives them in different places.

Legend:
Assay type in all cases: cell-based
[1] = test system: collagenase; experiment: Test for an Activity of Inhibiting Collagenase Expression (MMP-1 ELISA, UVA-irradiated human dermal fibroblasts); settings: Fibroblast, light or radiation study, 24 h, read-out: inhibitory rate (%) of collagenase expression; for inhibition at 10 µM: concentration 10 μM
Experimental: Test for an Activity of Inhibiting Collagenase Expression
(§1) The test compound was added to human dermal fibroblasts which had become confluent in a culture plate. Eighteen hours later, the culture solution was replaced with a phenol red-free medium. The cells were subjected to UV irradiation (UVA; 20 J/cm^2) using Dermaray M-DMR-80 (supplied by Toshiba Iryo Yohin KK). After 24 hours passed, the culture solution was recovered, and the collagenase concentration in the culture solution was measured using MMP-1α·ELISA System (supplied by Amersham Corp.). The rate of inhibition of collagenase expression on the test compound was calculated using formula (VI).
Rate (%) of inhibition of collagenase expression={1−(B4−B6)/(B5−B6)}×100 (VI)
B4: collagenase concentration in the addition of the test compound
B5: collagenase concentration in the non-addition of the test compound
B6: collagenase concentration when the test compound was not added, nor was UV irradiation conducted

[2] = test system: NF-κB; experiment: Test for an Activity of Inhibiting NF-κB Activation (gel shift assay, UVB-irradiated human epidermal cells); settings: light or radiation study, read-out: inhibitory rate (%) of NF-κB activation; for inhibition at 1000 µM: concentration 1 mM; for inhibition at 2000 µM: concentration 2 mM; for inhibition at 10 µM: concentration 10 μM; for inhibition at 50 µM: concentration 50 μM
Experimental: Test for an Activity of Inhibiting NF-κB Activation
(§2) Eighteen hours later, the culture solution was replaced with a phenol red-free medium. The cells were subjected to UV irradiation (UVB: 50 mJ/m^2)using Dermaray M-DMR-80 (supplied by Toshiba Iryo Yohin KK). After from 4 to 5 hours passed, the cells were recovered, and the nucleoproteins were extracted in a usual manner. With respect to the resulting nucleoproteins, NF-κB activated by gel shift assay was detected. The amount of NF-κB was determined by measuring a radioactivity of an NF-κB band using a bio-imaging analyzer BAS 2000 (supplied by Fuji Photo Film). The rate of inhibition of NF-κB activation on the test compound was calculated using formula (III).
Rate (%) of inhibition of NF-κB activation={1−(A1−A3)/(A2−A3)}×100 (III)
A1: radioactivity of an NF-κB band in the addition of the test compound
A2: radioactivity of an NF-κB band in the non-addition of the test compound
A3: radioactivity of an NF-κB band when the test compound was not added, nor was UV irradiation conducted

[3] = test system: IL-1α; experiment: Test for an Activity of Inhibiting IL-1α Expression (ELISA, UVB-irradiated human epidermal cells); settings: light or radiation study, 24 h, read-out: inhibitory rate (%) of IL-1α expression; for inhibition at 20 µM: concentration 20 μM; for inhibition at 50 µM: concentration 50 μM; for inhibition at 10 µM: concentration 10 μM; for inhibition at 500 µM: concentration 0.5 mM; for inhibition at 1000 µM: concentration 1 mM; for inhibition at 10000 µM: concentration 10 mM
Experimental: Test for an Activity of Inhibiting IL-1α Expression
as §1, with “epidermal cells” for “dermal fibroblasts”, “(UVB: 50 mJ/cm^2)” for “(UVA; 20 J/cm^2)”, “IL-1α” for “collagenase”, “IL-1α·ELISA” for “MMP-1α·ELISA”, “(V).” for “(VI).”
Rate (%) of inhibition of IL-1α expression={1−(B1−B3)/(B2−B3)}×100 (V)
B1: IL-1α concentration in the addition of the test compound
B2: IL-1α concentration in the non-addition of the test compound
B3: IL-1α concentration when the test compound was not added, nor was UV irradiation conducted

[4] = test system: AP-1; experiment: Test for an Activity of Inhibiting AP-1 Activation (gel shift assay, UVA-irradiated human dermal fibroblasts); settings: AP1, light or radiation study, read-out: inhibitory rate (%) of AP-1 activation; for inhibition at 1 µM: concentration 1 μM; for inhibition at 500 µM: concentration 0.5 mM
Experimental: Test for an Activity of Inhibiting AP-1 Activation
as §2, with “The test compound was added to human dermal fibroblasts which had become confluent in a culture plate. Eighteen” for “Eighteen”, “(UVA: 20 J/cm^2) using” for “(UVB: 50 mJ/m^2)using”, “AP-1” for “NF-κB”, “(IV).” for “(III).”
Rate (%) of inhibition of AP-1 activation={1−(A4−A6)/(A5−A6)}×100 (IV)
A4: radioactivity of an AP-1 band in the addition of the test compound
A5: radioactivity of an AP-1 band in the non-addition of the test compound
A6: radioactivity of an AP-1 band when the test compound was not added, nor was UV irradiation conducted

`CCOC(=O)[C@@H](C)NCc1ccccc1O` [N-(2-hydroxybenzyl)-D-alanine ethyl ester] was tested, and the inhibition at 500 µM ([1]; concentration 0.5 mM) was 108%, the inhibition at 1000 µM [2] was 90% and the inhibition at 2000 µM [2] was 87%.
`CCCCCCCCCCCCNC(=O)[C@@H](C)NCc1ccccc1O` [N-(2-hydroxybenzyl)-D-alanine lauryl amide] showed an inhibition at 10 µM [2] of 29%, an inhibition at 50 µM [2] of 97% and an inhibition at 20 µM [3] of 25%. For the same compound, the inhibition at 50 µM [3] was 79%, the inhibition at 1 µM [4] was 14% and the inhibition at 20 µM ([4]; concentration 20 μM) was 31%.
Compound `CCCCCCCCCCCCOC(=O)[C@@H](C)NCc1ccccc1O` [N-(2-hydroxybenzyl)-D-alanine lauryl ester] has an inhibition at 50 µM [2] of 60%, an inhibition at 100 µM ([2]; concentration 100 μM) of 59% and an inhibition at 10 µM [3] of 35%. The inhibition at 50 µM [3] was 31%.
With `CCNC(=O)[C@H](C)NCc1ccccc1O` [N-(2-hydroxybenzyl)-L-alanine ethyl amide] the inhibition at 1000 µM [2] was 43%, the inhibition at 2000 µM [2] was 26% and the inhibition at 500 µM [3] was 81%. It also gave an inhibition at 1000 µM [3] of 99%, an inhibition at 1000 µM ([4]; concentration 1 mM) of 52% and an inhibition at 2000 µM ([4]; concentration 2 mM) of 131%.
With `CCOC(=O)[C@H](C)NCc1ccccc1O` [N-(2-hydroxybenzyl)-L-alanine ethyl ester] the inhibition at 200 µM ([2]; concentration 0.2 mM) was 68%, the inhibition at 2000 µM [2] was 77% and the inhibition at 200 µM ([3]; concentration 0.2 mM) was 61%. For the same compound, the inhibition at 2000 µM ([3]; concentration 2 mM) was 100% and the inhibition at 500 µM [4] was 26%.
`CC(C)OC(=O)[C@H](C)NCc1ccccc1O` [N-(2-hydroxybenzyl)-L-alanine isopropyl ester] showed an inhibition at 100 µM ([3]; concentration 0.1 mM) of 36%, an inhibition at 1000 µM [3] of 53% and an inhibition at 100 µM ([4]; concentration 0.1 mM) of 20%. It also gave an inhibition at 500 µM [4] of 35%.
For `C[C@H](NCc1ccccc1O)C(=O)O` [N-(2-hydroxybenzyl)-L-alanine], the inhibition at 1000 µM [2] was 20%, the inhibition at 1 µM ([3]; concentration 1 μM) was 14% and the inhibition at 10 µM [3] was 100%.
Compound `CCOC(=O)[C@H](CCCNC(=N)N)NCc1ccccc1O` [N-(2-hydroxybenzyl)-L-arginine ethyl ester] has an inhibition at 500 µM [3] of 65%.
For `CCCCCCCCCCCCNC(=O)[C@H](CCCNC(=N)N)NCc1ccccc1O` [N-(2-hydroxybenzyl)-L-arginine lauryl amide], the inhibition at 10 µM [2] was 16% and the inhibition at 50 µM [2] was 28%.
In the case of `CCCCCCCCCCCCOC(=O)[C@H](CCCNC(=N)N)NCc1ccccc1O` [N-(2-hydroxybenzyl)-L-arginine lauryl ester], the inhibition at 10 µM [1] is reported as 52%.
With `CCOC(=O)[C@H](CC(C)C)NCc1ccccc1O` [N-(2-hydroxybenzyl)-L-leucine ethyl ester] the inhibition at 1000 µM [2] was 84% and the inhibition at 2000 µM [2] was 57%.
In the case of `CCCCCCCCCCCCOC(=O)[C@H](CC(C)C)NCc1ccccc1O` [N-(2-hydroxybenzyl)-L-leucine lauryl ester], the inhibition at 10 µM [1] is reported as 21%, the inhibition at 10 µM [2] is reported as 21% and the inhibition at 20 µM ([2]; concentration 20 μM) is reported as 23%.
Compound `CCOC(=O)[C@H](Cc1ccccc1)NCc1ccccc1O` [N-(2-hydroxybenzyl)-L-phenylalanine ethyl ester] has an inhibition at 100 µM ([3]; concentration 0.1 mM) of 25%.
For `CCOC(=O)[C@@H]1CCC(=O)N1Cc1ccccc1O` [N-(2-hydroxybenzyl)-L-pyroglutamic acid ethyl ester], the inhibition at 1000 µM [2] was 53%, the inhibition at 2000 µM [2] was 85% and the inhibition at 500 µM [3] was 84%. For the same compound, the inhibition at 1000 µM [3] was 55%.
`CCCCCCCCCCCCOC(=O)[C@H](CO)NCc1ccccc1O` [N-(2-hydroxybenzyl)-L-serine lauryl ester] was tested, and the inhibition at 50 µM [2] was 79%, the inhibition at 10 µM [3] was 12% and the inhibition at 100 µM ([3]; concentration 100 μM) was 31%. The inhibition at 1 µM [4] was 43% and the inhibition at 10 µM ([4]; concentration 10 μM) was 49%.
In the case of `O=C(O)[C@H](CO)NCc1ccccc1O` [N-(2-hydroxybenzyl)-L-serine], the inhibition at 10000 µM ([2]; concentration 10 mM) is reported as 17%, the inhibition at 30000 µM ([2]; concentration 30 mM) is reported as 34% and the inhibition at 10000 µM [3] is reported as 62%. The inhibition at 30000 µM ([3]; concentration 30 mM) was 70%.
`CCNC(=O)[C@H](Cc1ccc(O)cc1)NCc1ccccc1O` [N-(2-hydroxybenzyl)-L-tyrosine ethyl amide] showed an inhibition at 1000 µM [2] of 72% and an inhibition at 2000 µM [2] of 28%.
Compound `CCOC(=O)[C@H](Cc1ccc(O)cc1)NCc1ccccc1O` [N-(2-hydroxybenzyl)-L-tyrosine ethyl ester] has an inhibition at 100 µM ([2]; concentration 0.1 mM) of 64% and an inhibition at 500 µM ([2]; concentration 0.5 mM) of 81%.
`CCOC(=O)CNCc1ccccc1O` [N-(2-hydroxybenzyl)glycine ethyl ester] gave an inhibition at 10 µM [1] of 39% and an inhibition at 100 µM ([1]; concentration 100 μM) of 46%.
`CCCCCCCCCCCCNC(=O)CNCc1ccccc1O` [N-(2-hydroxybenzyl)glycine lauryl amide] was tested, and the inhibition at 20 µM [3] was 13% and the inhibition at 50 µM [3] was 45%.
`O=C(O)CNCc1ccccc1O` [N-(2-hydroxybenzyl)glycine] showed an inhibition at 5000 µM ([2]; concentration 5 mM) of 36%, an inhibition at 5000 µM ([3]; concentration 5 mM) of 26% and an inhibition at 10000 µM [3] of 88%.
Work on `S=C(S)N1CCCC1` [pyrrolidinedithiocarbamate, reference compound] yielded an inhibition at 5 µM ([2]; concentration 5 μM) of -9%, an inhibition at 10 µM [2] of 9% and an inhibition at 5 µM ([3]; concentration 5 μM) of -45%.
